From ChEMBL document CHEMBL4613246, “Antimycobacterial Rufomycin Analogues from Streptomyces atratus Strain MJM3502” (J Nat Prod, 2020)
Values after ≈ are worked out from the molar mass of the structure shown. Starred links: 1 amine or outer side, 2 acyl side, 3 side chain; linkers in the order of their positions; H or OH if unused. Non-standard residues stand in square brackets, D forms with d. Residues, ends and D or L forms follow the SMILES beside them. Trp(1-CMe2(2S-oxiranyl)) = CC(C)([C@H]1CO1)n1cc(C[C@H](N)C(=O)O)c2ccccc21; Trp(1-(1,1-Me2-allyl)) = C=CC(C)(C)n1cc(C[C@H](N)C(=O)O)c2ccccc21; X3 = CC(C)([C@H](O)CCl)n1cc(C[C@H](N[*:1])C(=O)[*:2])c2ccccc21; Tyr(3-NO2) = N[C@@H](Cc1ccc(O)c([N+](=O)[O-])c1)C(=O)O; NMeLeu(5-OH,4R) = CN[C@@H](C[C@@H](C)CO)C(=O)O; X1 = COC(OC)C(C)C[C@@H](C(=O)[*:2])N(C)[*:1]; X2 = C[C@H](CO)C[C@@H](C(=O)[*:2])N(C)[*:1]; Gly(E-crotyl) = C/C=C/C[C@H](N)C(=O)O; NMeL = CN[C@@H](CC(C)C)C(=O)O

Columns and labels:
[1] = system: Mycobacterium tuberculosis; assay: Antimycobacterial activity against nonreplicating Mycobacterium tuberculosis H37Rv under hypoxic condition by fluorescence based assay; format: functional
[2] = system: Mycobacterium tuberculosis; assay: Antimycobacterial activity against Mycobacterium tuberculosis H37Rv assessed as reduction in microbial growth after 7 days by alamar blue assay; format: functional; details: 168 h
[3] = target: T1, ATP-dependent Clp protease ATP-binding subunit ClpC1 (Mycobacterium tuberculosis, UniProt P9WPC9); assay: Binding affinity to recombinant full length Mycobacterium tuberculosis H37Rv ClpC1 (1 to 842 residues) expressed in Escherichia coli BL21 cells by surface plasmon resonance analysis
T1 sequence (P9WPC9 whole entry, the tested form may be a part): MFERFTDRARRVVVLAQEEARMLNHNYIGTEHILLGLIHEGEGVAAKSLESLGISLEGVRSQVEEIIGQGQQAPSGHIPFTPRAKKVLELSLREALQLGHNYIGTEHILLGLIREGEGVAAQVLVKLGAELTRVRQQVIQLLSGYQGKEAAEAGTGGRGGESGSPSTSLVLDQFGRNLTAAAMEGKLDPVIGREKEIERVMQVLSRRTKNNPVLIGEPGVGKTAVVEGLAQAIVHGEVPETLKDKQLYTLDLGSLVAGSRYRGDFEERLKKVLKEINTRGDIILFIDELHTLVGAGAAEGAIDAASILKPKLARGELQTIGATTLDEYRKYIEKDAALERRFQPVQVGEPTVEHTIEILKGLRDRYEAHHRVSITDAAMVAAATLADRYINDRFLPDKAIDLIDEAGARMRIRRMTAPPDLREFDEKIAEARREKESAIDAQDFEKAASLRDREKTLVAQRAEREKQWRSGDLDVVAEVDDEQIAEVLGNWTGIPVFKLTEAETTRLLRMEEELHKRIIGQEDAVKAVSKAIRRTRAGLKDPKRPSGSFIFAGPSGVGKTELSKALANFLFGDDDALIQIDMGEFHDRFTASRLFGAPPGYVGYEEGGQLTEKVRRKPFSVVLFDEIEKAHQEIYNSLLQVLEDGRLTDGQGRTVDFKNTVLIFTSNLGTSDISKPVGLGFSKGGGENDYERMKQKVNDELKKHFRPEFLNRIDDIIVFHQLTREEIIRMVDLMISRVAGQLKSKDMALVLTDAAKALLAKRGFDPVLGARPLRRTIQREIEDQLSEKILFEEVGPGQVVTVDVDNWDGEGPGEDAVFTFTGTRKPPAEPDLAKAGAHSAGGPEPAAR

[4] = target: T1, ATP-dependent Clp protease ATP-binding subunit ClpC1; assay: Binding affinity to recombinant Mycobacterium tuberculosis H37Rv N-terminal His6-tagged ClpC1 (1 to 145 residues) expressed in Escherichia coli BL21 cells by surface plasmon resonance analysis
[5] = system: Mycobacteroides abscessus; assay: Antimycobacterial activity against Mycobacterium abscessus ATCC 19977 assessed as reduction in microbial growth after 7 days by alamar blue assay; format: functional; details: ATCC 19977, 168 h
Vero = assay: cells; details: Chlorocebus sabaeus
Description: Cytotoxicity against African green monkey Vero cells

| SMILES | MIC [1] | MIC [2] | Kd [3] | Kd [4] | MIC [5] | IC50 (Vero) |
| --- | --- | --- | --- | --- | --- | --- |
| C=CC(C)(C)n1cc(C[C@@H]2NC(=O)[C@H](CC(C)C)N(C)C2=O)c2ccccc21 | 4 to 10 µM (≈ 1.53 to 3.82 µg/mL) | > 10 µM | – | – | – | – |
| C/C=C/C[C@@H]1NC(=O)[C@H](CC(C)C)N2C(=O)[C@H](C[C@](C)(O)[C@H]2O)N(C)C(=O)[C@H](C)NC(=O)[C@H](Cc2ccc(O)c([N+](=O)[O-])c2)NC(=O)[C@H](CC(C)C)N(C)C(=O)[C@H](Cc2cn(C(C)(C)[C@H]3CO3)c3ccccc23)NC1=O | 4 to 10 µM (≈ 4.23 to 10.6 µg/mL) | 0.03 µM | 50 nM | 60 nM | – | – |
| C/C=C/C[C@@H]1NC(=O)[C@H](CC(C)C)N2C(=O)[C@H](CC(C)[C@H]2O)N(C)C(=O)[C@H](C)NC(=O)[C@H](Cc2ccc(O)c([N+](=O)[O-])c2)NC(=O)[C@H](CC(C)C)N(C)C(=O)[C@H](Cc2cn(C(C)(C)[C@H]3CO3)c3ccccc23)NC1=O (stereo not given in full) | 4 to 10 µM (≈ 4.17 to 10.4 µg/mL) | 0.02 µM | 60 nM | 60 nM | 0.29 µM | – |
| C/C=C/C[C@@H]1NC(=O)[C@H](CC(C)C)N2C(=O)[C@H](C[C@@H](C)[C@H]2O)N(C)C(=O)[C@H](C)NC(=O)[C@H](Cc2ccc(O)c([N+](=O)[O-])c2)NC(=O)[C@H](CC(C)C)N(C)C(=O)[C@H](Cc2cn(C(C)(C)[C@H](O)CO)c3ccccc23)NC1=O | 4 to 10 µM (≈ 4.24 to 10.6 µg/mL) | 0.1 µM | 280 nM | 300 nM | – | – |
| C=CC(C)(C)n1cc(C[C@@H]2NC(=O)[C@H](C/C=C/C)NC(=O)[C@H](CC(C)C)NC(=O)[C@H](CC(C)C)N(C)C(=O)[C@H](C)NC(=O)[C@H](Cc3ccc(O)cc3)NC(=O)[C@H](CC(C)C)N(C)C2=O)c2ccccc21 (HELM PEPTIDE1{A.[meL].L.[C/C=C/C[C@H](N[*:1])C(=O)[*:2]].[C=CC(C)(C)n1cc(C[C@H](N[*:1])C(=O)[*:2])c2ccccc21].[meL].Y}$PEPTIDE1,PEPTIDE1,1:R1-7:R2$$$V2.0) | 4 to 10 µM (≈ 3.87 to 9.67 µg/mL) | > 10 µM | 5700 nM | 1200 nM | – | – |
| C=CC(C)(C)n1cc(C[C@@H]2NC(=O)[C@H](C/C=C/C)NC(=O)[C@H](CC(C)C)NC(=O)[C@H](CC(C)C)N(C)C(=O)[C@H](C)NC(=O)[C@H](Cc3ccc(O)c([N+](=O)[O-])c3)NC(=O)[C@H](CC(C)C)N(C)C2=O)c2ccccc21 (cyclo(A[NMeL]L[Gly(E-crotyl)][Trp(1-(1,1-Me2-allyl))][NMeL][Tyr(3-NO2)])) | 4 to 10 µM (≈ 4.05 to 10.1 µg/mL) | 1.7 µM | 3200 nM | 1200 nM | – | – |
| C/C=C/C[C@@H]1NC(=O)[C@H](CC(C)C)NC(=O)[C@H](CC(C)C)N(C)C(=O)[C@H](C)NC(=O)[C@H](Cc2ccc(O)c([N+](=O)[O-])c2)NC(=O)[C@H](CC(C)C)NC(=O)[C@H](Cc2cn(C(C)(C)[C@H]3CO3)c3ccccc23)NC1=O (cyclo(A[NMeL]L[Gly(E-crotyl)][Trp(1-CMe2(2S-oxiranyl))]L[Tyr(3-NO2)])) | 4 to 10 µM (≈ 4.06 to 10.1 µg/mL) | 0.57 µM | 1500 nM | – | – | – |
| C/C=C/C[C@@H]1NC(=O)[C@H](CC(C)C)NC(=O)[C@H](CC(C)C)N(C)C(=O)[C@H](C)NC(=O)[C@H](Cc2ccc(O)c([N+](=O)[O-])c2)NC(=O)[C@H](CC(C)C)N(C)C(=O)[C@H](Cc2cn(C(C)(C)[C@H]3CO3)c3ccccc23)NC1=O (cyclo(A[NMeL]L[Gly(E-crotyl)][Trp(1-CMe2(2S-oxiranyl))][NMeL][Tyr(3-NO2)])) | 4 to 10 µM (≈ 4.11 to 10.3 µg/mL) | 0.2 µM | 540 nM | 1700 nM | – | – |
| C/C=C/C[C@@H]1NC(=O)[C@H](CC(C)C)NC(=O)[C@H](CC(C)C)N(C)C(=O)[C@H](C)NC(=O)[C@H](Cc2ccc(O)c([N+](=O)[O-])c2)NC(=O)[C@H](CC(C)C)N(C)C(=O)[C@H](Cc2cn(C(C)(C)[C@H](O)CCl)c3ccccc23)NC1=O (cyclo(A[NMeL]L[Gly(E-crotyl)][X3][NMeL][Tyr(3-NO2)])) | 4 to 10 µM (≈ 4.26 to 10.6 µg/mL) | – | 1500 nM | 1500 nM | – | – |
| C/C=C/C[C@@H]1NC(=O)[C@H](CC(C)C)NC(=O)[C@H](C[C@@H](C)CO)N(C)C(=O)[C@H](C)NC(=O)[C@H](Cc2ccc(O)c([N+](=O)[O-])c2)NC(=O)[C@H](CC(C)C)N(C)C(=O)[C@H](Cc2cn(C(C)(C)[C@H]3CO3)c3ccccc23)NC1=O (cyclo(A[NMeLeu(5-OH,4R)]L[Gly(E-crotyl)][Trp(1-CMe2(2S-oxiranyl))][NMeL][Tyr(3-NO2)])) | 4 to 10 µM (≈ 4.18 to 10.4 µg/mL) | 0.44 µM | 1300 nM | 1600 nM | – | – |
| C/C=C/C[C@@H]1NC(=O)[C@H](CC(C)C)NC(=O)[C@H](CC(C)C(OC)OC)N(C)C(=O)[C@H](C)NC(=O)[C@H](Cc2ccc(O)c([N+](=O)[O-])c2)NC(=O)[C@H](CC(C)C)N(C)C(=O)[C@H](Cc2cn(C(C)(C)[C@H]3CO3)c3ccccc23)NC1=O (stereo partly drawn) (cyclo(A[X1]L[Gly(E-crotyl)][Trp(1-CMe2(2S-oxiranyl))][NMeL][Tyr(3-NO2)])) | 4 to 10 µM (≈ 4.35 to 10.9 µg/mL) | 0.11 µM | 450 nM | 310 nM | – | – |
| C=CC(C)(C)n1cc(C[C@@H]2NC(=O)[C@H](C/C=C/C)NC(=O)[C@H](CC(C)C)NC(=O)[C@H](C[C@H](C)CO)N(C)C(=O)[C@H](C)NC(=O)[C@H](Cc3ccc(O)c([N+](=O)[O-])c3)NC(=O)[C@H](CC(C)C)N(C)C2=O)c2ccccc21 (cyclo(A[X2]L[Gly(E-crotyl)][Trp(1-(1,1-Me2-allyl))][NMeL][Tyr(3-NO2)])) | 4 to 10 µM (≈ 4.11 to 10.3 µg/mL) | 0.84 µM | 1100 nM | 1100 nM | – | – |
| C/C=C/C[C@@H]1NC(=O)[C@H](CC(C)C)NC(=O)[C@H](C[C@H](C)CO)N(C)C(=O)[C@H](C)NC(=O)[C@H](Cc2ccc(O)c([N+](=O)[O-])c2)NC(=O)[C@H](CC(C)C)N(C)C(=O)[C@H](Cc2cn(C(C)(C)[C@H]3CO3)c3ccccc23)NC1=O (cyclo(A[X2]L[Gly(E-crotyl)][Trp(1-CMe2(2S-oxiranyl))][NMeL][Tyr(3-NO2)])) | 4 to 10 µM (≈ 4.18 to 10.4 µg/mL) | 0.25 µM | 500 nM | 620 nM | – | – |
| NNC(=O)c1ccncc1 [ISONIAZID] | – | 0.46 µM | – | – | > 8 µM | > 50000 nM |
| CO[C@H]1/C=C/O[C@@]2(C)Oc3c(C)c(O)c4c(O)c(c(/C=N/N5CCN(C)CC5)c(O)c4c3C2=O)NC(=O)/C(C)=C\C=C\[C@H](C)[C@H](O)[C@@H](C)[C@@H](O)[C@@H](C)[C@H](OC(C)=O)[C@@H]1C [RIFAMPIN] | – | 0.03 µM | – | – | > 4 µM | > 122000 nM |
